Literature values as cited in patent US9316644B2, “Method for establishing the sensitivity of tumours to capecitabin and test kit” (SANOXSYS GMBH, priority 2006, dated 2016).
Like-named read-outs stand apart in the source and are kept apart here.

Legend:
[1] = test system: progressive mamma carcinoma; conditions: of 25 patients; continuous low-dose 5-FU
[2] = test system: metastatic mamma carcinomas; conditions: for median reaction duration: in vivo; for ORR (overall response): second line after anthracycline failure
[3] = test system: metastatic mamma carcinoma
[4] = test system: metastatic mamma carcinomas
[5] = 68 patients evaluable for effectivity

O=c1[nH]cc(F)c(=O)[nH]1 [5-FU, 5-Fluorouracil]
patients achieving an objective reaction [1]: 8 patients

CC(=O)O[C@H]1C(=O)[C@@]2(C)[C@H]([C@H](OC(=O)c3ccccc3)[C@]3(O)C[C@H](OC(=O)[C@H](O)[C@@H](NC(=O)c4ccccc4)c4ccccc4)C(C)=C1C3(C)C)[C@]1(OC(C)=O)CO[C@@H]1C[C@@H]2O [Paclitaxel]
median reaction duration [2]: 9.4 months | ORR (overall response) [2]: 21%

CCCCCOC(=O)Nc1nc(=O)n(C2OC(C)C(O)C2O)cc1F (centres unmarked) [capecitabine, Pentyl[1-(3,4-dihydroxy-5-methyl-tetrahydrofuran-2-yl)-5-fluoro-2-oxo-1H-pyrimidin-4-yl]aminomethanoat]
complete remission [3, 5]: 3% | partial remission [3, 5]: 22% | diarrhea ([3]; CTC degree 1 and 2): 21% | lethargy ([3]; CTC degree 1 and 2): 18% | nausea and vomiting ([3]; CTC degree 1 and 2): 38% | hand and foot syndrome ([3]; CTC degree 1 and 2, 1250 mg/m^2 twice a day for 14 days, 7-day break, 77 patients evaluable): 40% | hand and foot toxicity ([3]; degree 3): 14% | stabilization of the disease ([3]; in vivo): 47% | tumor control ([3]; patients with intensive previous treatment): 72% | combination effect (with CPT-11, Tomudex, Mitomycin C or Cyclophosphamide): additive | combination effect (with Paclitaxel or Docetaxel): supra-additive | combination effect (with a radiation therapy): Synergetic effects | mean remission duration ([4]; human, in vivo): 241 days | median survival ([4]; human, in vivo): 384 days | median time until progression ([4]; human, in vivo): 93 days | patients with stable sequence of the illness ([4]; human, in vivo): 43% | therapy-induced fatalities ([4]; human, in vivo): did not occur | objective remission rate ([4]; intend to treat evaluation, 162 patients, 2510 mg/m^2/day for 14 days, 7-day break): 20% | tolerability ([4]; no pre-medication or primary prophylaxis necessary): excellent tolerability profile | patients whose pain was reduced by more than 50% ([4]; of 51 patients with pain figure above 20 mm on analogue pain scale at start): 47% | reaction rate ([4]; sub-group of 42 anthracycline and paclitaxel therapy refractory patients): 29% | median reaction duration [2]: 9.4 months | ORR (overall response) [2]: 36%
